Measurements from patent US10227369B2, “Short-chain fatty acid hexosamine analogs and their use in tissue engineering applications” (THE JOHNS HOPKINS UNIVERSITY, priority 2013, dated 2019).

Tests used:
[1] = tested on: chondrogenic-induced MSCs; assay: Chondrogenic-induced MSCs in 3D PEGDA hydrogels: real-time PCR gene expression; format: cell-based, goat
Procedure: (§1) Goat MSCs were isolated from 2- to 4-year-old goats (Thomas D. Morris, Inc., Reisterstown, Md.), as previously described. Briefly, bone marrow aspirates treated with 6,000 U/ml heparin were washed twice with PBS. Cells were plated at a density of 120,000 mononuclear cells/cm^2 and cultured in high glucose DMEM supplemented with 10% (v/v) FBS, 2 mM L-glutamine, 100 U/ml penicillin and 100 μg/ml streptomycin. The following day, tissue culture dishes were washed with PBS and medium was replaced. Medium changes were performed 3 times per week. Cells were passaged using 0.25% trypsin. They were used for experiments after passage four.
(§2) Photoencapsulation in Poly(Ethylene Glycol)-Diacrylate (PEGDA) Hydrogels and Construct Culturing. For all 3D culture experiments, cells were photoencapsulated in PEGDA hydrogels, as previously described. Briefly, 100 mg PEGDA (3.4 kDa, SunBio, Anyang City, South Korea) was dissolved in 1 ml sterile PBS. A photoinitiator solution of Irgacure® 2959 (CIBA Specialty Chemicals) was prepared by dissolving 100 mg of Irgacure® 2959 in 1 ml 70% ethanol. Five microliters of the Irgacure® 2959 solution was added to 1 ml of PEGDA solution. Cells were suspended in the hydrogel precursor solution at a density of 20 million cells/ml and polymerized in sterile molds. A high cell density was chosen as it has been shown. Based on our previous studies a high cell density was chosen to best to support a cell phenotype and differentiation and cell phenotype. Polymerization was carried out using UV light (365 nm, 3.2 mW/cm^2) exposure for 5 minutes.
For chondrogenesis experiments, the cell-laden hydrogels were cultured in chondrogenic induction medium (high glucose DMEM supplemented with 50 μg/ml ascorbic acid-2-phosphate, 40 μg/ml L-proline, 100 μg/ml sodium pyruvate, 1% ITS-premix (6.25 μg/ml insulin, 6.25 μg/ml transferrin, 6.25 ng/ml selenous acid, 1.25 mg/ml bovine serum albumin (BSA), 5.35 μg/ml linoleic acid (Collaborative Biomedical, BD Bioscience, Bedford, Mass.)) and 10 ng/ml TGF-β1 (Fitzgerald Industries International, Acton, Mass.) with specified concentrations of GalNAc-a or 100 nM dexamethasone (as a control). Constructs were cultured for 21 days with medium changes 3 times per week. For IL-1β stimulation, the cell-laden hydrogels were cultured for 3 days in chondrogenic induction medium supplemented with 10 ng/ml IL-1β. Constructs were cultured for an additional 21 days with chondrogenic induction medium supplemented with 10 ng/ml IL-1β and the specified concentration of GalNAc-a.
RNA Isolation and Real-Time PCR. Total RNA was extracted using TRIzol® reagent (Life Technologies, Grand Island, N.Y.) following the manufacturer's protocol. cDNA was synthesized using Superscript® II reverse transcriptase (Life Technologies, Grand Island, N.Y.) following the manufacturer's protocol. Real-time PCR was carried out using a StepOnePlus™ Real-Time PCR System (Life Technologies, Grand Island, N.Y.). mRNA amounts for bovine primers were calculated using the ΔΔCt method. Relative mRNA quantities for goat primers were calculated using the Pfaffl method.

[2] = tested on: chondrogenic-induced MSCs stimulated by IL-1β; assay: IL-1β-stimulated chondrogenic-induced MSCs in 3D PEGDA hydrogels: biochemical analysis; format: cell-based, goat; conditions: 10 ng/ml IL-1β, 21 days exposure
Procedure: as §1
Photoencapsulation in Poly(Ethylene Glycol)-Diacrylate (PEGDA) Hydrogels and Construct Culturing. […]
(§3) Biochemical Analysis. The constructs (n=3 for chondrocyte experiments and n=4 for chondrogenic experiments) were lyophilized for 48 hours and the dry weights measured. […] Quantification of DNA content was carried out using a Hoescht Dye 33342 DNA assay. […] Quantification of sulfated glycosaminoglycans (sGAG), a molecule found in cartilage ECM, was carried out using a 1,9-dimethylmethylene blue (DMMB) dye assay; chondroitin sulfate was used to generate standard curves. Quantification of collagen was carried out via measuring hydroxyproline content after hydrolyzing in 6 N HCl overnight at 120° C. […]

[3] = tested on: chondrogenic-induced MSCs; assay: Chondrogenic-induced MSCs in 3D PEGDA hydrogels: biochemical analysis and histology; format: cell-based, goat; conditions: 21 days
Procedure: as §1
as §2, with “minutes. […]” for “minutes.”
as §3

Chondrocytes = assay: WST-1 metabolic activity/toxicity screening of monolayer chondrocytes; format: cell-based, bovine; conditions: 3 days exposure, 0-320 μM tested
Procedure: Cell Isolation and Culturing. Bovine chondrocytes were isolated from 4- to 8-week-old calves (Research 87, Inc., Boylston, Mass.), as previously described. Briefly, cartilage was dissected from the femoral patellar groove and condyles and minced into approximately 1 mm^2 pieces. Cells were isolated from the tissue by digesting overnight at 37° C. with 2 mg/ml type II collagenase (Worthington Biochemical Corp., Lakewood, N.J.), 5% fetal bovine serum (FBS), 100 U/ml penicillin and 100 μg/ml streptomycin on an orbital shaker. The cell suspension was passed through a 70 μm cell strainer, followed by centrifugation. Cells were washed 3 times using sterile phosphate buffered saline (PBS). […]
Metabolic Activity/Toxicity Screening: Water Soluble Tetrazonium-1 (WST-1) Assay. […] Absorbance of the wells was read using a microplate reader at a wavelength of 450 nm. The absorbance of the wells containing WST-1 reagent with no cells was subtracted from the absorbance readings. Data is presented as the background subtracted reading normalized to 0 μM wells from five independent experiments for each hexosamine analog.

[4] = tested on: IL-1β-stimulated chondrocytes; assay: IL-1β-stimulated chondrocytes in 3D PEGDA hydrogels: biochemical analysis (DNA, sGAG, collagen), histology, immunohistochemistry; format: cell-based, bovine; conditions: 10 ng/ml IL-1β, 21 days
Procedure: Cell Isolation and Culturing. Bovine chondrocytes were isolated from 4- to 8-week-old calves (Research 87, Inc., Boylston, Mass.), as previously described. Briefly, cartilage was dissected from the femoral patellar groove and condyles and minced into approximately 1 mm^2 pieces. Cells were isolated from the tissue by digesting overnight at 37° C. with 2 mg/ml type II collagenase (Worthington Biochemical Corp., Lakewood, N.J.), 5% fetal bovine serum (FBS), 100 U/ml penicillin and 100 μg/ml streptomycin on an orbital shaker. The cell suspension was passed through a 70 μm cell strainer, followed by centrifugation. Cells were washed 3 times using sterile phosphate buffered saline (PBS). Chondrocyte medium was composed of high glucose Dulbecco's Modified Eagle's Medium (DMEM) supplemented with 10 mM HEPES, 0.4 mM L-proline, 50 μg/ml ascorbic acid, 10% (v/v) fetal bovine serum (FBS; Hyclone Laboratories, Inc., Logan, Utah), 0.1 mM non-essential amino acids, 100 U/ml penicillin and 100 μg/ml streptomycin.
as §2
For chondrocyte experiments, the cell-laden hydrogels were cultured in chondrocyte medium supplemented with 10 ng/ml IL-1β for 3 days. Following the initial 3 days, constructs were cultured with medium containing specific concentrations of hexosamine analog with 10 ng/ml IL-1β for an additional 21 days. The medium was changed 3 times per week.
Biochemical Analysis. The constructs (n=3 for chondrocyte experiments and n=4 for chondrogenic experiments) were lyophilized for 48 hours and the dry weights measured. Constructs were then homogenized in 125 μg/ml papainase (Worthington Biochemical Corp., Lakewood, N.J.) and digested for 16 hours at 60° C. Quantification of DNA content was carried out using a Hoescht Dye 33342 DNA assay. Calf thymus DNA was used to generate standard curves. Quantification of sulfated glycosaminoglycans (sGAG), a molecule found in cartilage ECM, was carried out using a 1,9-dimethylmethylene blue (DMMB) dye assay; chondroitin sulfate was used to generate standard curves. Quantification of collagen was carried out via measuring hydroxyproline content after hydrolyzing in 6 N HCl overnight at 120° C. The reaction of hydroxyproline with chloramine-T and p-dimethylaminobenzaldehyde was performed as a measure of total collagen content; hydroxyproline was used to generate standard curves.
Histology and Immunohistochemistry. Constructs were fixed in 10% formalin or 4% paraformaldehyde followed by dehydration in increasing concentrations of ethanol, embedded in paraffin and sliced into 5 μm sections. After paraffin removal and subsequent rehydration, sections were stained for proteoglycans using Safranin-O and fast green or prepared for immunohistochemistry. For immunohistochemical staining of type II collagen, endogenous peroxidase was quenched using 3% (v/v) hydrogen peroxide in methanol. Sections were then incubated at 37° C. with 2.5% (w/v) hyaluronidase and stained using a Histostain-SP Kit (AEC, Broad Spectrum) (Life Technologies, Grand Island, N.Y.) following the manufacturer's instructions. […]

[5] = both medium conditions, 21 days, dexamethasone 100 nM

CCCC(=O)OC[C@H]1OC(O)[C@H](NC(C)=O)[C@@H](OC(=O)CCC)[C@H]1OC(=O)CCC (stereo partly drawn) [GalNAc-a, 3,4,6-O-Bu3GalNAc]
SOX9 gene expression ([1]; 50 μM to 150 μM, both medium conditions, 21 days): decreased in a dose-dependent manner | SOX9 gene expression ([1]; 50 μM, ascorbic acid-containing medium, 21 days): increased SOX9 expression | type I collagen gene expression ([1]; 50 μM, both medium conditions, 21 days): initially increased | type I collagen gene expression compared to no analog exposure ([1]; above 50 μM for GalNAc-a, dexamethasone 100 nM, both medium conditions): remained elevated | MMP13 gene expression ([1]; all analog concentrations, regardless of medium condition): increased at all analog concentrations | aggrecan gene expression [1, 5]: followed a similar trend as SOX9 expression | type II collagen gene expression [1, 5]: decreased type II collagen expression | DNA content [2]: did not have an effect | sGAG accumulation normalized to DNA [2]: decreased sGAG accumulation | chondrogenic differentiation of the MSCs [3]: inhibits chondrogenic differentiation | total collagen accumulation normalized to DNA ([3]; ascorbic acid-containing medium, GalNAc-a varying concentrations, dexamethasone 100 nM): dose-dependent decrease | sGAG accumulation normalized to DNA ([3]; both medium conditions (with/without ascorbic acid), GalNAc-a varying concentrations, dexamethasone 100 nM): dose-dependent decrease | DNA content ([3]; with or without ascorbic acid): did not change | concentration from which reduced viability was observed (Chondrocytes): ≥ 160 µM | proteoglycan deposition (Safranin-O staining) ([4]; at 150 μM): further increase | sGAG accumulation normalized to DNA ([4]; at 150 μM): further increase | type II collagen deposition (immunohistochemistry) ([4]; starting at 50 μM, comparison of the three analogs): highest staining intensity | cartilage-like tissue formation (sGAG content, proteoglycan and type II collagen staining) ([4]; comparison of the three analogs): greatest cartilage-like tissue formation
